Laboratory results as given in ChEMBL document CHEMBL1155625, “Nostocyclyne A, a novel antimicrobial cyclophane from the cyanobacterium Nostoc sp” (2000).

Legend:
Format in all cases: functional
Escherichia coli = experiment: Antimicrobial activity against Escherichia coli measured per disk
Chlorophyta = experiment: Inhibition of photosynthesis in green alga at 100 ug/mL
Staphylococcus aureus = experiment: Antimicrobial activity against Staphylococcus aureus measured per disk

MIC (Escherichia coli): 10 µg | MIC (Staphylococcus aureus): 12.5 µg
Compound: CCCC1CCCCCCCCCCCC#Cc2cc(O)c1c(O)c2 (stereo not drawn) [NOSTOCYCLYNE A]
inhibition at 100 µg/mL (Chlorophyta): 5%
